Reference: ChEMBL document CHEMBL1641562, “Modifications of the C6-substituent of penicillin sulfones with the goal of improving inhibitor recognition and efficacy” (Bioorg Med Chem Lett, 2011)

Columns and labels:
[1] = Inhibition of beta-lactamase TEM-1
[2] = Inhibition of beta-lactamase PDC-3

Row | SMILES | IC50 [1] | IC50 [2]
1 | CC1(C)[C@H](C(=O)O)N2C(=O)[C@@H](CC(O)O)[C@H]2S1(=O)=O | > 50 µM | > 50 µM
2 | CC1(C)[C@H](C(=O)O)N2C(=O)[C@@H](NS(=O)(=O)C(F)(F)F)[C@H]2S1(=O)=O | > 50 µM | –
3 | CC1(C)[C@H](C(=O)O)N2C(=O)[C@@H](CNS(=O)(=O)C(F)(F)F)[C@H]2S1(=O)=O | 6.1 µM | –
4 | CC1(C)[C@H](C(=O)O)N2C(=O)[C@@H](NCC(=O)O)[C@H]2S1(=O)=O | > 50 µM | –
5 | CC1(C)[C@H](C(=O)O)N2C(=O)[C@@H](NC(=O)Cc3ccccc3)[C@H]2S1(=O)=O | > 50 µM | > 50 µM
6 | C=CC[C@@H]1C(=O)N2[C@@H](C(=O)OC(c3ccccc3)c3ccccc3)C(C)(C)S(=O)(=O)[C@H]12 | 35 µM | 1.2 µM
7 | C=CCOC(=O)NC[C@@H]1C(=O)N2[C@@H](C(=O)O)C(C)(C)S(=O)(=O)[C@H]12 | > 50 µM | –
8 | CC1(C)[C@H](C(=O)O)N2C(=O)[C@@H](N)[C@H]2S1(=O)=O | 8.4 µM | > 50 µM
9 | CC1(C)[C@H](C(=O)O)N2C(=O)[C@@H](CCO)[C@H]2S1(=O)=O | > 50 µM | –
10 | CC1(C)[C@H](C(=O)O)N2C(=O)[C@@H]([C@@H](O)C(=O)N3CCCC3)[C@H]2S1(=O)=O | 0.18 µM | –
11 | CC1(C)[C@H](C(=O)O)N2C(=O)[C@@H](CCCO)[C@H]2S1(=O)=O | > 50 µM | –
12 | CC1(C)[C@H](C(=O)O)N2C(=O)[C@@H](CNC(=O)Cc3ccccc3)[C@H]2S1(=O)=O | > 50 µM | –
13 | Cc1onc(-c2ccccc2)c1C(=O)N[C@@H]1C(=O)N2[C@@H](C(=O)O)C(C)(C)S(=O)(=O)[C@H]12 | > 50 µM | –
14 | COc1cccc(OC)c1C(=O)N[C@@H]1C(=O)N2[C@@H](C(=O)O)C(C)(C)S(=O)(=O)[C@H]12 | > 50 µM | –
15 | CC1(C)[C@H](C(=O)O)N2C(=O)C[C@H]2S1(=O)=O [SULBACTAM] | – | 4.3 µM
16 | CC1(C)[C@H](C(=O)O)N2C(=O)[C@@H](CN)[C@H]2S1(=O)=O | 0.45 µM | > 50 µM
17 | CC1(C)[C@H](C(=O)O)N2C(=O)[C@@H](CC(=O)NO)[C@H]2S1(=O)=O | > 50 µM | > 50 µM
18 | CC(C)(C)C(=O)NC[C@@H]1C(=O)N2[C@@H](C(=O)O)C(C)(C)S(=O)(=O)[C@H]12 | > 50 µM | –
19 | CC1(C)[C@H](C(=O)O)N2C(=O)[C@@H]([C@@H](O)CN)[C@H]2S1(=O)=O | 1.2 µM | 1.2 µM
20 | CC1(C)[C@H](C(=O)O)N2C(=O)[C@@H](CC(=O)O)[C@H]2S1(=O)=O | > 50 µM | –
